Laboratory results: article PMC7280531, “A PROTAC peptide induces durable β-catenin degradation and suppresses Wnt-dependent intestinal cancer” (Cell Discovery, 2020)
Where a SMILES comes first, the peptide text is derived from it. Bridges are numbered along the chain shown (N, C = ends). [ ]: non-standard residue; d: D form. S5 = C=CCCC[C@](C)(N)C(=O)O; Ahx = NCCCCCC(=O)O

Experiments:
[1] = tested on: CRC patient-derived organoids; assay: CRC patient-derived tumor organoid culture; assay type: cell-based, human; conditions: 10 μM
Experimental: Fig. 6 xStAx-VHLL restrains the survival of CRC patient-derived organoids. a Twelve CRC patient-derived organoids, numbered from C-01 to C-12, were treated with DMSO and 10 μM xStAx-VHLL for 4 days. The organoids survival rate of each group was calculated at day 4. b The C-08 organoids were treated with DMSO and 10 μM xStAx-VHLL for 4 days. The trypan blue staining at day 4 indicated the dead organoids. Scale bar = 100 μm. c The percentage of survived C-08 organoids was calculated each day after xStAx-VHLL treatment. d The C-08 organoids were treated with DMSO or 10 μM xStAx-VHLL for 48 h and then harvested for immunoblotting. Relative β-catenin protein levels were quantified. e The C-08 organoids were treated with DMSO and 10 μM xStAx-VHLL for 4 days. Scale bar = 100 μm. f The percentage of survived organoids in C-11 group was calculated each day after xStAx-VHLL treatment. g The C-11 organoids were treated with DMSO or 10 μM xStAx-VHLL for 48 h and then harvested for immunoblotting. Relative β-catenin protein levels were quantified. The relative band intensity was quantified with ImageJ and normalized to GAPDH levels.
CRC patient tumor tissues were washed with cold HBSS. After removing the muscle tissue, the epithelial tumor tissues were cut into small pieces and vigorously suspended. Then the tissue suspension was centrifuged (3 min at 300–400 g) and tumor fraction was enriched at the bottom. Next, the tumor fraction was embedded in Matrigel (BD Biosciences) and seeded on 24-well plates with the culture medium, which includes Advanced DMEM/F12 supplemented with Penicillin/Streptomycin, GlutaMAX-I, N2, B27, N-acetylcysteine (Sigma-Aldrich), CHIR-99021 (5 μM, Selleck), A-83–01 (0.5 μM, Cayman), SB202190 (10 μM, Selleck), gastrin (1 nM, Tocris), Y27632 (10 μM, Enzo), PEG2 (2.5 μM, Selleck), nicotinamide (10 mM, Sigma-Aldrich), EGF (50 ng/mL, Invitrogen), Noggin (100 ng/mL, R&D) and R-spondin1 (500 ng/mL).

β-catenin = biological target: T1, β-catenin (Homo sapiens, UniProt P35222); assay: β-catenin immunoblotting / immunoprecipitation in HEK293T cells
T1 sequence (P35222 1-781): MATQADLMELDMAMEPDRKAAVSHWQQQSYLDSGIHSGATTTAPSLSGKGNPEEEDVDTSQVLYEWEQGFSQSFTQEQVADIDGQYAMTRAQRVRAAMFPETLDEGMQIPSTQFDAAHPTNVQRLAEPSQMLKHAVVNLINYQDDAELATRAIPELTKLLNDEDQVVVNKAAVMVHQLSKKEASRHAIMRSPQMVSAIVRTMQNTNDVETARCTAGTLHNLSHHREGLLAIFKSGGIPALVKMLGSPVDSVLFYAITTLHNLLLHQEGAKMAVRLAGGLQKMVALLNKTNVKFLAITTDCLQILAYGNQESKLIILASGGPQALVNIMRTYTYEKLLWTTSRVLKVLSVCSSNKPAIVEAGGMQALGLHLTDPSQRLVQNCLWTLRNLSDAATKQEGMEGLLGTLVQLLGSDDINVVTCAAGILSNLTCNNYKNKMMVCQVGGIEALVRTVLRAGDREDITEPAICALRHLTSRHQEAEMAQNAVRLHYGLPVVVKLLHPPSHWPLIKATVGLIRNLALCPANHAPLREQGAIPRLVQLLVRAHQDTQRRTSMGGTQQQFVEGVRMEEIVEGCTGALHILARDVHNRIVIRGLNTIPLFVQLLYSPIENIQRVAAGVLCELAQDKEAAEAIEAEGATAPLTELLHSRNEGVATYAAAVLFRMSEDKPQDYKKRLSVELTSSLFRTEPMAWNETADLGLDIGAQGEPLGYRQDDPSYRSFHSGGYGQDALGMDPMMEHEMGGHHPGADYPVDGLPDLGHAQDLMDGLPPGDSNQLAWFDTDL
Experimental: The relative band intensity was quantified with ImageJ and normalized to GAPDH.
For immunoprecipitation, the cells were lysed in TNE lysis buffer (50 mM Tris-HCl, pH 8.0, 150 mM NaCl, 1% Nonidet P-40, and protease inhibitor cocktail). […] After 18,000×g centrifugation for 10 min, the lysates were immunoprecipitated with specific antibody and protein A-Sepharose beads and then washed the beads with TNE buffer for three times before immunoblotting.

Axin2 expression = assay: Axin2^LacZ Wnt reporter mice, β-galactosidase staining of small intestine; assay type: in vivo; conditions: i.p. injection, 7 doses/14 days
Experimental: The small intestines were isolated from Axin2^LacZ reporter mice, washed with PBS and fixed in 4 % paraformaldehyde for 1 h at room temperature, then cut into small pieces (1 cm). The tissue pieces were stained with in situ β-galactosidase staining kit (Beyotime) according to the manufacturer’s instruction. The stained tissues were transferred to tissue cassettes and paraffin blocks prepared using standard methods. The tissues were sliced into 5 μm thick sections with paraffin slicing machine (RM2235, Leica) and subjected to hematoxylin staining.

intestinal tumors = assay: Intestinal tumors in APC^min/+ mice
Experimental: Because APC^min/+ mice can develop intestinal tumors around 10 weeks-old[26], the 11 weeks-old APC^min/+ mice were intraperitoneally injected with 30 mg/kg vehicle DMSO or peptides at every other day for 14 days. Then the mice were sacrificed for analysis of intestinal tumors.
Tumor number of the whole intestinal tract was analyzed in the lower panel.

APC^−/− organoids = assay: APC^−/− mouse intestinal organoid culture; assay type: cell-based
LoVo cells = assay: Tumor formation in nude mice from pretreated LoVo cells; assay type: in vivo, BALB/C nude mice
Experimental: Next, to examine the influence of the peptides on tumor formation, 3 × 10^6 LoVo cells were pretreated with each peptide at 50 μM for 24 h, followed by subcutaneous injection into BALB/C nude mice. After 3 weeks when tumors were visible, the mice were sacrificed for comparison of subcutaneous tumors among different groups.
LoVo cells cultured were pretreated with DMSO pr peptides (50 μM) for 24 h. Then the cells were digested with trypsin and centrifuge (3 min at 300–400 g). Cell pellets were washed with cold PBS three times and the cell number was counted. The BALB/C nude mice were subcutaneously injected with 3 × 10^6 cells. Three weeks later, the nude mice were sacrificed and dissected for tumors. Tumor weight was quantified.

HCT116 cells = assay: Cell proliferation assay (CCK-8), HCT116 cells; assay type: cell-based; conditions: 50 μM peptides, 6 days, cell number counted each day
Experimental: Equal number of cells (8000–10,000 cells) were seeded in the 24-well plates and then subjected to different treatments. The cell numbers were counted every 24 h with the CCK-8 cell counting kit (Dojindo Molecular Technologies) according to manufacturer’s instructions.

[2] = 50 μM peptides, 24 h, immunoblot

## CC[C@H](C)[C@@H]1NC(=O)[C@@](C)(NC(=O)[C@H](CCCNC(=N)N)NC(=O)[C@@H]2CCCN2C(=O)[C@H](Cc2c[nH]c3ccccc23)NC(=O)[C@H](CCCNC(=N)N)NC(=O)[C@H](CCCNC(=N)N)NC(C)=O)CCCC=CCCC[C@@](C)(C(=O)N[C@@H](Cc2c[nH]cn2)C(=O)N[C@H](C(=O)N[C@@H](CCCNC(=N)N)C(=O)N[C@@H](CCCNC(=N)N)C(=O)N[C@H](C(=O)N[C@@H](Cc2c[nH]c3ccccc23)C(=O)N[C@@H](CCCNC(=N)N)C(=O)NCCCCCC(=O)N[C@@H](C)C(=O)N[C@@H](CC(C)C)C(=O)N[C@@H](C)C(=O)N2CCC[C@H]2C(=O)N[C@@H](Cc2ccc(O)cc2)C(=O)N[C@H](C(=O)N2CCC[C@H]2C(N)=O)[C@@H](C)CC)C(C)C)C(C)C)NC(=O)[C@H](CC(=O)O)NC(=O)[C@H](CC(C)C)NC1=O [xStAx-VHLL] (Ac-RRWPR[S5]ILD[S5]HVRRVWR[Ahx]ALAPYIP-NH2; staple 6-10; N-terminus and C-terminus assumed)
[1]; 2 days (48 h), immunoblot
  β-catenin protein level in C-08 organoids: reduced the β-catenin protein level
[1]; 4 days
  survival of C-11 organoids: insensitive to xStAx-VHLL
[1]; 4 days, 12 CRC samples C-01 to C-12
  patient-derived organoids whose survival was potently inhibited: 11/12
[1]; 4 days, compared with DMSO control
  survival of C-08 and C-05 organoids: strong inhibition function
β-catenin; 10 μM MSAB, 50 μM xStAx-VHLL (legend: 70 μM, Wnt3a CM), 24 h
  β-catenin protein level, MSAB versus xStAx-VHLL: decreased β-catenin protein to a comparable level
β-catenin; 50 μM peptide 24 h, MG132 10 μM 12 h, IP and immunoblot
  β-catenin ubiquitination: promoted β-catenin ubiquitination
β-catenin; 70 μM peptide and Wnt3a CM, immunoblot time course
  time post treatment at which β-catenin degradation started: 12 h
β-catenin; 70 μM peptide, 24 h, without Wnt3a, immunoblot
  endogenous β-catenin protein level: reduced the β-catenin level
β-catenin; 70 μM peptide, Wnt3a CM, 24 h, immunoblot, lower than xStAx
  β-catenin protein level in Wnt3a-treated cells: significantly downregulated β-catenin protein level
β-catenin; MSAB 10 μM or xStAx-VHLL 70 μM 24 h, then fresh medium 24 or 48 h
  β-catenin level after wash-out of the drug: durable degradation of β-catenin
Axin2 expression
  Axin2 expression (β-galactosidase staining): significantly blocked Axin2 expression
Intestinal tumors; 30 mg/kg i.p. 7 times, immunoblot, compared with the vehicle group
  active β-catenin protein level in small intestine: also decreased
Intestinal tumors; 11 weeks-old mice, 30 mg/kg i.p. every other day for 14 days (7 times), vs day 0 or DMSO
  intestinal tumor number: dramatically reduced tumor number
APC^−/− organoids; 10 μM MSAB or 50 μM xStAx-VHLL, 4 days
  APC^−/− organoid survival, MSAB versus xStAx-VHLL: strong inhibition
APC^−/− organoids; 50 μM peptide, 4 days
  growth of APC^−/− organoids: significantly impeded the growth
APC^−/− organoids; [2]
  cleaved caspase 3: increased
  β-catenin protein level: greatly decreased
APC^−/− organoids; qPCR
  expression of Wnt target genes Axin2, Cyclin D1 and Myc: downregulated
LoVo cells; 3 × 10^6 LoVo cells pretreated with 50 μM peptide for 24 h, s.c. injection, 3 weeks, n = 10 mice per group
  subcutaneous tumor size and weight: significantly smaller in size and weight
LoVo cells; tumors from pretreated LoVo cells, immunoblot, compared with other groups
  β-catenin protein level in tumor extracts: apparently decreased
LoVo cells; tumors from pretreated LoVo cells, qPCR
  Wnt target genes Axin2, Cyclin D1 and Myc in tumors: also decreased
HCT116 cells
  proliferation of HCT116 cells: significantly attenuated the proliferation
